Results from patent publication US12492181B2, “Gem-disubstituted piperidine melanocortin subtype-2 receptor (MC2R) antagonists and uses thereof” (Crinetics Pharmaceuticals, Inc., priority 2019, dated 2025).

Each compound was assayed against T1, hMC2 receptor (crude hMC2R membranes from CRE-bla-CHO-K1 cells stably expressing hMC2 receptor and hMRAP accessory protein) (Homo sapiens, UniProt Q01718) (assay: hMC2 membrane binding assay ([125I]ACTH (1-39) Tyr23, SPA)). Details: displacement of 0.2 nM [125I]ACTH (1-39) Tyr23 from hMC2R membranes, 1.5 hours at room temperature; read-out: MC2R binding potency.
T1 construct: crude membrane fractions
T1 sequence (Q01718 whole entry): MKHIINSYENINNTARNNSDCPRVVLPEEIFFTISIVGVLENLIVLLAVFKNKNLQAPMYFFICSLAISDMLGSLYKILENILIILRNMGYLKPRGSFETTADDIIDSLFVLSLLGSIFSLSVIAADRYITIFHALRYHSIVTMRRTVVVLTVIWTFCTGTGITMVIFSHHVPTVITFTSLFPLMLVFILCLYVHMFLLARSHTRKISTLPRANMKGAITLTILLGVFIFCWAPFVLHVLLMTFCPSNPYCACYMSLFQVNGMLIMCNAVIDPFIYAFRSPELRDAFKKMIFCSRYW
T1 sequence (Q8TCY5 whole entry partner): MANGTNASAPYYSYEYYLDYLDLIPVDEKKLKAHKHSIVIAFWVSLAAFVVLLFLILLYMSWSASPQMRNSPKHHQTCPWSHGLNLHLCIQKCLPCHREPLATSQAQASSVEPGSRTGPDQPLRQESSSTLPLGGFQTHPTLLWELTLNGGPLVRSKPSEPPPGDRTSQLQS
How it was run: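 Crude membranes from CRE-bla-CHO-K1 cells stably co-expressing hMC2R and hMRAP, premixed with WGA PVT SPA beads in pH 7.4 HEPES buffer (5 mM MgCl2, 1 mM CaCl2, 0.20% BSA, protease inhibitors). Compounds compete with [125I]ACTH(1-39) Tyr23, read by scintillation. Ki from non-linear regression.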

SMILES	Ki
CCOc1ncccc1-c1ncc(C2(C(=O)N[C@H]3CCN(C)C3)CCN(c3ccc(C(F)(F)F)cc3F)CC2)cc1F [Compound 1-201, (S)-4-(2′-ethoxy-3-fluoro-[2,3′-bipyridin]-5-yl)-1-(2-fluoro-4-(trifluoromethyl)phenyl)-N-(1-methylpyrrolidin-3-yl)piperidine-4-carboxamide]	< 10 nM
CCc1ccccc1-c1ccc(C2(C(=O)N[C@H]3CCN(C)C3)CCN(c3ccc(C(F)(F)F)cc3Cl)CC2)cn1 [Compound 1-156, 1-[2-chloro-4-(trifluoromethyl)phenyl]-4-[6-(2-ethylphenyl)pyridin-3-yl]-N-[(3S)-1-methylpyrrolidin-3-yl]piperidine-4-carboxamide]	< 10 nM
CCOc1ncccc1-c1ccc(C2(C(=O)NCC3CN(C)C3)CCN(c3ccc(C(F)(F)F)cc3C#N)CC2)cn1 [Compound 1-18, 1-[2-cyano-4-(trifluoromethyl)phenyl]-4-{2′-ethoxy-[2,3′-bipyridin]-5-yl}-N-[(1-methylazetidin-3-yl)methyl]piperidine-4-carboxamide]	< 10 nM
CN1CC[C@@H](NC(=O)C2(c3ccc(-c4ccccc4CO)nc3)CCN(c3ccc(C(F)(F)F)cc3C#N)CC2)C1 [Compound 1-55, 1-[2-cyano-4-(trifluoromethyl)phenyl]-4-{6-[2-(hydroxymethyl)phenyl]pyridin-3-yl}-N-[(3R)-1-methylpyrrolidin-3-yl]piperidine-4-carboxamide]	< 10 nM
Cn1cccc1-c1ccc(C2(C(=O)NCCCN)CCN(c3ccc(C(F)(F)F)cc3C#N)CC2)cn1 [Compound 1-205, N-(3-aminopropyl)-1-[2-cyano-4-(trifluoromethyl)phenyl]-4-[6-(1-methyl-1H-pyrrol-2-yl)pyridin-3-yl]piperidine-4-carboxamide]	10 to 100 nM
COc1ccccc1-c1ccc(C2(C(=O)NCC3CN(C)C3)CCN(c3ccc(C(F)(F)F)cc3C#N)CC2)cn1 [Compound 1-211, 1-[2-cyano-4-(trifluoromethyl)phenyl]-4-[6-(2-methoxyphenyl)pyridin-3-yl]-N-[(1-methylazetidin-3-yl)methyl]piperidine-4-carboxamide]	< 10 nM
CNCCNC(=O)C1(c2ccc(-c3cccnc3OC)nc2)CCN(c2ccc(C(F)(F)F)cc2Cl)CC1 [Compound 1-274, 1-[2-chloro-4-(trifluoromethyl)phenyl]-4-{2′-methoxy-[2,3′-bipyridin]-5-yl}-N-[2-(methylamino)ethyl]piperidine-4-carboxamide]	< 10 nM

Further lines, results first:

Ki	SMILES
< 10 nM	COc1ncccc1-c1ccc(C2(NC(=O)C3CN(C)C3)CCN(c3ccc(C(F)(F)F)cc3C#N)CC2)cn1 [Compound 2-40, N-{1-[2-cyano-4-(trifluoromethyl)phenyl]-4-{2′-methoxy-[2,3′-bipyridin]-5-yl}piperidin-4-yl}-1-methylazetidine-3-carboxamide]
< 10 nM	CCOc1ccccc1-c1ccc(C2(NC(=O)C3CN(C)C3)CCN(c3ccc(Cl)cc3C#N)CC2)cn1 [Compound 2-25, N-[1-(4-chloro-2-cyanophenyl)-4-[6-(2-ethoxyphenyl)pyridin-3-yl]piperidin-4-yl]-1-methylazetidine-3-carboxamide]
100 to 1000 nM	CN1CC(F)(F)C[C@H]1CNC(=O)C1(c2ccc(-c3cccn3C)nc2)CCN(c2ccc(C(F)(F)F)cc2C#N)CC1 [Compound 1-279, 1-[2-cyano-4-(trifluoromethyl)phenyl]-N-{[(2S)-4,4-difluoro-1-methylpyrrolidin-2-yl]methyl}-4-[6-(1-methyl-1H-pyrrol-2-yl)pyridin-3-yl]piperidine-4-carboxamide]
< 10 nM	COc1ncccc1-c1ncc(C2(C(=O)NCCN(C)C)CCN(c3ccc(C(F)(F)F)cc3F)CC2)cc1F [Compound 1-300, N-[2-(dimethylamino)ethyl]-4-{3-fluoro-2′-methoxy-[2,3′-bipyridin]-5-yl}-1-[2-fluoro-4-(trifluoromethyl)phenyl]piperidine-4-carboxamide]
